Target: T1, Human PPARγ2 (Homo sapiens, UniProt P37231)
T1 construct: The full length human cDNA for PPARγ2 and PPARδ were subcloned into the PGEX-2T and PGEX-KT; made in house; host or cells: E. coli (pGEX-2T vector)
T1 sequence (P37231 1-505): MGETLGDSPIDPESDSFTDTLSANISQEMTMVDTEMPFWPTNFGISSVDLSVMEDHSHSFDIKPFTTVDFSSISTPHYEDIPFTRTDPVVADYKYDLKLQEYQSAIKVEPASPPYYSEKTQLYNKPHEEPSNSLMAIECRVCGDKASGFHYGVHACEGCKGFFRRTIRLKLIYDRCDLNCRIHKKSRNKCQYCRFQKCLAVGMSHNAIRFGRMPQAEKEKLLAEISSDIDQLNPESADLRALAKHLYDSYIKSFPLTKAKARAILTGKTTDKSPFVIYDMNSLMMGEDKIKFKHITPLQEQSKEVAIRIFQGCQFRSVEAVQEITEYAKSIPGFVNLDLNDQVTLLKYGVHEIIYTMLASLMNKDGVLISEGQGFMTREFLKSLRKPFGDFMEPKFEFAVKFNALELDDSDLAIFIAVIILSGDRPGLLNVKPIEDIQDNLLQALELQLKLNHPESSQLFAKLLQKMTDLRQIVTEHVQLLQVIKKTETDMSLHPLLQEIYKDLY
Assay: [3H]AD-5075 displacement assay for PPARγ2
Format: binding
Conditions: gst-fusion human PPARγ2, charcoal separation, ~16 h at 4° C.
Description: Compounds of the instant invention which are useful for the above discussed treatments can be identified and/or characterized by employing the PPAR δ, and γ binding assays. The assays are useful in predicting or quantitating in vivo effects having to do with the control or modulation of glucose, free fatty acid, triglyceride, insulin or cholesterol. To evaluate IC50 or EC50, values the compounds were titrated in the appropriate assay using different concentrations of the compound to be tested. To obtain the appropriate values (%Inhibition-IC50, or %Activation-EC50), the data resulting from the assays were then analyzed by determining the best fit of a 4 parameter function to the data using the Levenberg-Marquardt non-linear fitting algorithm in Kaleidagraph (Synergy Software, Reading, Pa.). The human nuclear receptor cDNA for PPARδ (hPPARδ) has been cloned from a human osteosarcoma cell cDNA library and is fully described in A. Schmidt et al., Molecular Endocrinology, 6:1634-1641 (1992), herein incorporated by reference in its entirety. See A. Elbrecht et al., Biochem. and Biophy. Res. Comm. 224:431-437 (1996) and T. Sher et al., Biochem. 32:5598-5604 (1993) for a description of the human nuclear receptor gene PPARγ and α.
Human PPARγ2 and PPARδ, independently, were prepared as gst-fusion proteins in E. coli. […]

## Cc1oc(-c2ccccc2)nc1C(O)COc1ccc(CC2SC(=O)NC2=O)cc1 (stereo not shown) [AD-5075]
  Kd: ~1 nM
